The source of these data is patent US9394346B2, “Method for producing an amino acid using a bacterium overexpressing an rhtC gene” (priority 1998, dated 2016).

Format in all cases: cell-based, E. coli
One experiment concerns N99/pRhtB. In words: MIC of amino acids and analogues on M9 agar, strain N99/pRhtB. Particulars: Escherichia coli. On the procedure: (§1) Therefore, the effect of the pRhtB and pRhtC plasmids on susceptibility of the strain N99 which is a streptomycin-resistant (Str^R) mutant of the known strain W3350 (VKPM B-1557) to some amino acids and amino acid analogues was tested. Overnight broth cultures (10^9 cfu/ml) of the strains N99/pUC21, N99pUK21, N99/pRhtB and N99/pRhtC were diluted 1:100 in M9 minimal medium and grown for 5 h in the same medium. Then the log phase cultures thus obtained were diluted and about 10^4 viable cells were applied to well-dried test plates with M9 agar (2%) containing doubling increments of amino acids or analogues. Thus the minimum inhibitory concentrations (MIC) of these compounds were examined.

Another experiment concerns N99/pUC21. The experiment is described as follows: MIC of amino acids and analogues on M9 agar, strain N99/pUC21. As to conditions: Escherichia coli; N99/pUC21 (vector control; same data with N99/pUK21); M9 agar (2%), about 10^4 viable cells, doubling increments. On the procedure:
as §1

The subject of the next experiment is N99/pRhtC. The experiment is described as follows: MIC of amino acids and analogues on M9 agar, strain N99/pRhtC. Particulars: Escherichia coli; N99/pRhtC (multicopy rhtC); M9 agar (2%), about 10^4 viable cells, doubling increments. On the procedure:
as §1

In general, MIC refers to the smallest concentration in the dilution series that meets the test's criterion for growth inhibition. For the molecule `CN(C)CC(N)C(=O)O` (racemic) [4-aza-DL-leucine], the results for the MIC in the experiment on N99/pRhtB, in the experiment with N99/pUC21 and in the experiment on N99/pRhtC were 100 µg/mL, 50 µg/mL and 50 µg/mL, respectively.

With `NCCSC[C@H](N)C(=O)O` [AEC, S-(2-aminoethyl)-L-cysteine], the MIC came to 20 µg/mL in the experiment with N99/pRhtB, 5 µg/mL in the experiment with N99/pUC21 and 5 µg/mL with N99/pRhtC.

On to `CCC(O)C(N)C(=O)O` (stereo not drawn) [AHVA, α-amino-β-hydroxyvaleric-acid], for which the MIC in the experiment on N99/pRhtB is 2000 µg/mL; in the experiment with N99/pUC21, 100 µg/mL; in the experiment with N99/pRhtC it was 15000 µg/mL.

In the case of `N[C@@H](Cc1c[nH]cn1)C(=O)O` [L-histidine], the MIC is 5000 µg/mL with N99/pRhtB, 5000 µg/mL in the experiment on N99/pUC21 and 40000 µg/mL with N99/pRhtC.

Regarding `N[C@@H](CCO)C(=O)O` [L-homoserine], the MIC turned out to be 20000 µg/mL in the experiment with N99/pRhtB, 1000 µg/mL with N99/pUC21 and 1000 µg/mL in the experiment with N99/pRhtC.

For the molecule `C[C@@H](O)[C@H](N)C(=O)O` [L-threonine], the MIC with N99/pRhtB stood at 40000 µg/mL; with N99/pUC21, 30000 µg/mL; in the experiment on N99/pRhtC, 80000 µg/mL.

Turning to `CC(C)[C@H](N)C(=O)O` [L-valine], the MIC in the experiment with N99/pRhtB amounted to 0.5 µg/mL; with N99/pUC21, 0.5 µg/mL; in the experiment with N99/pRhtC, 2 µg/mL.

On to `CO[C@H](C)[C@H](N)C(=O)O` [O-methyl-L-threonine], for which the MIC with N99/pRhtB, in the experiment on N99/pUC21 and with N99/pRhtC was 20 µg/mL throughout.
